Laboratory results reported in ChEMBL document CHEMBL4507329, “Data for DCP probe BTZO-1” (2021).

What was measured:
[1] = molecular target: Macrophage-stimulating protein receptor (Homo sapiens) (UniProt Q04912); details: Compound concentration 1000.0 nM
[2] = molecular target: Epithelial discoidin domain-containing receptor 1 (Homo sapiens) (UniProt Q08345); details: Compound concentration 1000.0 nM
[3] = molecular target: Mitogen-activated protein kinase kinase kinase 6 (Homo sapiens) (UniProt O95382); details: Compound concentration 1000.0 nM
[4] = system: Proto-oncogene tyrosine-protein kinase receptor Ret (Homo sapiens), P07949 [V804M]; details: Compound concentration 1000.0 nM
[5] = molecular target: Myosin-IIIa (Homo sapiens) (UniProt Q8NEV4); details: Compound concentration 1000.0 nM
[6] = molecular target: Calcium/calmodulin-dependent protein kinase kinase 2 (Homo sapiens) (UniProt Q96RR4); details: Compound concentration 1000.0 nM
[7] = molecular target: Cyclin-dependent kinase-like 1 (Homo sapiens) (UniProt Q00532); details: Compound concentration 1000.0 nM
[8] = molecular target: Hormonally up-regulated neu tumor-associated kinase (Homo sapiens) (UniProt P57058); details: Compound concentration 1000.0 nM
[9] = molecular target: Testis-specific serine/threonine-protein kinase 1 (Homo sapiens) (UniProt Q9BXA7); details: Compound concentration 1000.0 nM
[10] = molecular target: Mitogen-activated protein kinase 7 (Homo sapiens) (UniProt Q13164); details: Compound concentration 1000.0 nM
[11] = system: Receptor-type tyrosine-protein kinase FLT3 (Homo sapiens), P36888 [UNDEFINED MUTATION]; details: Compound concentration 1000.0 nM
[12] = molecular target: Mitogen-activated protein kinase kinase kinase 5 (Homo sapiens) (UniProt Q99683); details: Compound concentration 1000.0 nM
[13] = molecular target: Non-receptor tyrosine-protein kinase TYK2 (Homo sapiens) (UniProt P29597); details: Compound concentration 1000.0 nM
[14] = molecular target: Ankyrin repeat and protein kinase domain-containing protein 1 (Homo sapiens) (UniProt Q8NFD2); details: Compound concentration 1000.0 nM
[15] = molecular target: Dual specificity mitogen-activated protein kinase kinase 2 (Homo sapiens) (UniProt P36507); details: Compound concentration 1000.0 nM
[16] = molecular target: Phosphorylase b kinase gamma catalytic chain, skeletal muscle/heart isoform (Homo sapiens) (UniProt Q16816); details: Compound concentration 1000.0 nM
[17] = molecular target: Beta-1 adrenergic receptor (Homo sapiens) (UniProt P08588); details: Compound concentration 10.0 uM
[18] = molecular target: Tyrosine-protein kinase BTK (Homo sapiens) (UniProt Q06187); details: Compound concentration 1000.0 nM
[19] = molecular target: Myosin-IIIb (Homo sapiens) (UniProt Q8WXR4); details: Compound concentration 1000.0 nM
[20] = molecular target: Serine/threonine-protein kinase 35 (Homo sapiens) (UniProt Q8TDR2); details: Compound concentration 1000.0 nM
[21] = molecular target: Glycogen synthase kinase-3 beta (Homo sapiens) (UniProt P49841); details: Compound concentration 1000.0 nM
[22] = molecular target: Serine/threonine-protein kinase N2 (Homo sapiens) (UniProt Q16513); details: Compound concentration 1000.0 nM
[23] = molecular target: Casein kinase I isoform alpha (Homo sapiens) (UniProt P48729); details: Compound concentration 1000.0 nM
[24] = molecular target: Mitogen-activated protein kinase 8 (Homo sapiens) (UniProt P45983); details: Compound concentration 1000.0 nM
[25] = molecular target: Cyclin-dependent kinase 14 (Homo sapiens) (UniProt O94921); details: Compound concentration 1000.0 nM
[26] = molecular target: Macrophage colony-stimulating factor 1 receptor (Homo sapiens) (UniProt P07333); details: Compound concentration 1000.0 nM
[27] = molecular target: Serine/threonine-protein kinase D1 (Homo sapiens) (UniProt Q15139); details: Compound concentration 1000.0 nM
[28] = system: eIF-2-alpha kinase GCN2 (Homo sapiens), Q9P2K8 [S808G]; details: Compound concentration 1000.0 nM
[29] = molecular target: Serine/threonine-protein kinase PLK4 (Homo sapiens) (UniProt O00444); details: Compound concentration 1000.0 nM
[30] = molecular target: Mitogen-activated protein kinase 13 (Homo sapiens) (UniProt O15264); details: Compound concentration 1000.0 nM
[31] = molecular target: Angiopoietin-1 receptor (Homo sapiens) (UniProt Q02763); details: Compound concentration 1000.0 nM
[32] = molecular target: Activin receptor type-1-like (Homo sapiens) (UniProt P37023); details: Compound concentration 1000.0 nM
[33] = molecular target: 5-hydroxytryptamine receptor 1B (Homo sapiens) (UniProt P28222); details: Compound concentration 10.0 uM
[34] = molecular target: SRSF protein kinase 3 (Homo sapiens) (UniProt Q9UPE1); details: Compound concentration 1000.0 nM
[35] = molecular target: Bone morphogenetic protein receptor type-2 (Homo sapiens) (UniProt Q13873); details: Compound concentration 1000.0 nM
[36] = molecular target: Phosphatidylinositol 4-phosphate 5-kinase type-1 alpha (Homo sapiens) (UniProt Q99755); details: Compound concentration 1000.0 nM
[37] = molecular target: Dual specificity protein kinase CLK3 (Homo sapiens) (UniProt P49761); details: Compound concentration 1000.0 nM
[38] = molecular target: Ephrin type-A receptor 7 (Homo sapiens) (UniProt Q15375); details: Compound concentration 1000.0 nM
[39] = molecular target: Atypical kinase COQ8B, mitochondrial (Homo sapiens) (UniProt Q96D53); details: Compound concentration 1000.0 nM
[40] = molecular target: Aurora kinase A (Homo sapiens) (UniProt O14965); details: Compound concentration 1000.0 nM
[41] = molecular target: Rhodopsin kinase GRK7 (Homo sapiens) (UniProt Q8WTQ7); details: Compound concentration 1000.0 nM
[42] = molecular target: Homeodomain-interacting protein kinase 2 (Homo sapiens) (UniProt Q9H2X6); details: Compound concentration 1000.0 nM
[43] = molecular target: MAP/microtubule affinity-regulating kinase 3 (Homo sapiens) (UniProt P27448); details: Compound concentration 1000.0 nM
[44] = molecular target: cGMP-dependent protein kinase 2 (Homo sapiens) (UniProt Q13237); details: Compound concentration 1000.0 nM
[45] = system: Tyrosine-protein kinase ABL1 (Homo sapiens), P00519 [Q252H]; details: Compound concentration 1000.0 nM

eIF-2-alpha kinase GCN2 (Homo sapiens), Q9P2K8 [S808G], sequence (Q9P2K8 whole entry S808G): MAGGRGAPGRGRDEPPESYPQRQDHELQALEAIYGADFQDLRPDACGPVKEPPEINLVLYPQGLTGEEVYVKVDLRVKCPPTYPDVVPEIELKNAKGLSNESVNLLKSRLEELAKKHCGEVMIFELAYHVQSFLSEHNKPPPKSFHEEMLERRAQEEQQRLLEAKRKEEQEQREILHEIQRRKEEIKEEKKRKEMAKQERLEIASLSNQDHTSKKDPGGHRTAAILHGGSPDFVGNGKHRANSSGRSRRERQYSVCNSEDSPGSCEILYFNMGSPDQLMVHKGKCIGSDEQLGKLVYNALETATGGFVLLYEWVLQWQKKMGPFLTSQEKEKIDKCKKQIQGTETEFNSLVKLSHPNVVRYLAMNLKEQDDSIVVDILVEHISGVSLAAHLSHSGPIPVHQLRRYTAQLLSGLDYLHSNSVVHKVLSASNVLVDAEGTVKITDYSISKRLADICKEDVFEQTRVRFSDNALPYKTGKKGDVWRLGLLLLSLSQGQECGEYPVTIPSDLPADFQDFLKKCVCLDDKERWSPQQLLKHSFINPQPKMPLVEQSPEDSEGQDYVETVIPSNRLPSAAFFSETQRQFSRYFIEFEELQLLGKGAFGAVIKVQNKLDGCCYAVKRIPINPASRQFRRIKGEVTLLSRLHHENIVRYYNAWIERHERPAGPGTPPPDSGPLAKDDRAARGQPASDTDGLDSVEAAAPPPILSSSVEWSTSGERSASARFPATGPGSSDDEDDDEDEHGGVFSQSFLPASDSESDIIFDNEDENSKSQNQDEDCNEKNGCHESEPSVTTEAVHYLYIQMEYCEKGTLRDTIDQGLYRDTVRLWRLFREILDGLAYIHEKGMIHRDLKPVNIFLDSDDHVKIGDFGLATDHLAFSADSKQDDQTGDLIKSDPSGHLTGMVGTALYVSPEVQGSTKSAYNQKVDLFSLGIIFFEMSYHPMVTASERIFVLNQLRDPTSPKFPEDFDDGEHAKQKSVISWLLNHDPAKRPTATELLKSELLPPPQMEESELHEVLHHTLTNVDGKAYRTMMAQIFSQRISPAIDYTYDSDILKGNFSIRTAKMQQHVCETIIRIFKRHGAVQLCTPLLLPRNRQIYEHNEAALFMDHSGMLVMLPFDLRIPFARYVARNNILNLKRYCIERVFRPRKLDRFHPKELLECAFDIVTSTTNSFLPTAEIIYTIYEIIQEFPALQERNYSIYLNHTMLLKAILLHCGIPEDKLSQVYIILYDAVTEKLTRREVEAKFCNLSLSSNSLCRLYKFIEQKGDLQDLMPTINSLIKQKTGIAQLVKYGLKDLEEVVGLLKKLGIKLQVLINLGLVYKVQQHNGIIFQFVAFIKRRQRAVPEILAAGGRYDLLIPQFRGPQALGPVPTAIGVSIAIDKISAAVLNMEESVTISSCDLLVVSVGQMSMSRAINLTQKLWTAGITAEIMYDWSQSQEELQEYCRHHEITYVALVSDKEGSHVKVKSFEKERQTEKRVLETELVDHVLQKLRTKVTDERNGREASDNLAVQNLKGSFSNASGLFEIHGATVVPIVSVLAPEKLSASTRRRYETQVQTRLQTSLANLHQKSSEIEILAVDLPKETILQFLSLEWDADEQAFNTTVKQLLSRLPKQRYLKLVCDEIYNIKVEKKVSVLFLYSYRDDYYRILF
Beta-1 adrenergic receptor (Homo sapiens), sequence (P08588 whole entry, looked up): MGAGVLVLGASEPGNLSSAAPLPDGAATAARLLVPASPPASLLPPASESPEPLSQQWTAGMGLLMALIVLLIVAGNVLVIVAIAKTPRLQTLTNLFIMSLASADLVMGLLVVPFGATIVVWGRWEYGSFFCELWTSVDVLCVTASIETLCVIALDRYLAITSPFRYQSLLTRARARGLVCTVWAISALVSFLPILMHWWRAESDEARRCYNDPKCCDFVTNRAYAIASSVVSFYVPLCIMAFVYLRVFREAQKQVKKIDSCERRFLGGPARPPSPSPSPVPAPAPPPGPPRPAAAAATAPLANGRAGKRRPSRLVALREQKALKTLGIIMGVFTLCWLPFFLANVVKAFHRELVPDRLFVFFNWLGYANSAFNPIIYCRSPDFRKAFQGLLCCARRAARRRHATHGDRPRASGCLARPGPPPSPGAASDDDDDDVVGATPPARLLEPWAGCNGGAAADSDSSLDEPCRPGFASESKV
SRSF protein kinase 3 (Homo sapiens), sequence (Q9UPE1 whole entry): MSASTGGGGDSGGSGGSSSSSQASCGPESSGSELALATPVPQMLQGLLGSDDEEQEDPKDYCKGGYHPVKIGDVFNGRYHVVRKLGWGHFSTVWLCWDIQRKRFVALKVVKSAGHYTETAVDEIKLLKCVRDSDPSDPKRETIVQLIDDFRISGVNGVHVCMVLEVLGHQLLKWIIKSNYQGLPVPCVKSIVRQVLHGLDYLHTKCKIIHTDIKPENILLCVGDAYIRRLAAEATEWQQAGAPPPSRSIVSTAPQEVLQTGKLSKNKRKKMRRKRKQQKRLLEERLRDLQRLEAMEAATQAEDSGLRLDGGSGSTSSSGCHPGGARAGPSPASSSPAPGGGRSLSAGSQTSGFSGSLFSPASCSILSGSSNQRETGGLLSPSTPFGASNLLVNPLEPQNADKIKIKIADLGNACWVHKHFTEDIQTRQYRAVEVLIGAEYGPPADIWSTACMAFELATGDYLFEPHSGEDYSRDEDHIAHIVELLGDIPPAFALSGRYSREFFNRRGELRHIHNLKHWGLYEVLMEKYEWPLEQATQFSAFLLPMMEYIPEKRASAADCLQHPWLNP
Serine/threonine-protein kinase 35 (Homo sapiens), sequence (Q8TDR2 whole entry): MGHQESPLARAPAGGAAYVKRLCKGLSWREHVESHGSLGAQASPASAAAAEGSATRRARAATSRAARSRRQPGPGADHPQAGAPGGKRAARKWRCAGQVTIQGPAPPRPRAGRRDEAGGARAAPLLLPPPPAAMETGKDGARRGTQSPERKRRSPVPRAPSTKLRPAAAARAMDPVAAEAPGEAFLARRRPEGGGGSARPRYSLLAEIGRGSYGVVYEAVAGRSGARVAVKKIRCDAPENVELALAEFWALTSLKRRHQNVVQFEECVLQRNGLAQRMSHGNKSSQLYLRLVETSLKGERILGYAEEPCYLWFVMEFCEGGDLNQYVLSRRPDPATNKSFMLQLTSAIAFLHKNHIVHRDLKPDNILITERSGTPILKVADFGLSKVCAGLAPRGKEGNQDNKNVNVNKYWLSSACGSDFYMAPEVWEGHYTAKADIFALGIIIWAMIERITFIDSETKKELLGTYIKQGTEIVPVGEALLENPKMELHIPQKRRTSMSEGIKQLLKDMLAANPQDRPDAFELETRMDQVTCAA
Glycogen synthase kinase-3 beta (Homo sapiens), sequence (P49841 whole entry, looked up): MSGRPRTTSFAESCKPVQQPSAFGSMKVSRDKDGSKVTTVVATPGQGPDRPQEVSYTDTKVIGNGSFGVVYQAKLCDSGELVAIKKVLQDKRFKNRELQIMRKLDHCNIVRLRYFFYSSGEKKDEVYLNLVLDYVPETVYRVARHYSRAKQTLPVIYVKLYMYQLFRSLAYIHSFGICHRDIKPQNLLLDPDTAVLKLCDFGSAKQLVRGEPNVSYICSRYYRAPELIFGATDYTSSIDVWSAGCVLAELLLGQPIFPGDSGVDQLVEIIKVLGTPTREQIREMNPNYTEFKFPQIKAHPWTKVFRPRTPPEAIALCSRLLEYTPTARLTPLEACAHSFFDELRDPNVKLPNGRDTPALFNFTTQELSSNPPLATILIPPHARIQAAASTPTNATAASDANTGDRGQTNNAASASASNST
Mitogen-activated protein kinase kinase kinase 6 (Homo sapiens), sequence (O95382 whole entry): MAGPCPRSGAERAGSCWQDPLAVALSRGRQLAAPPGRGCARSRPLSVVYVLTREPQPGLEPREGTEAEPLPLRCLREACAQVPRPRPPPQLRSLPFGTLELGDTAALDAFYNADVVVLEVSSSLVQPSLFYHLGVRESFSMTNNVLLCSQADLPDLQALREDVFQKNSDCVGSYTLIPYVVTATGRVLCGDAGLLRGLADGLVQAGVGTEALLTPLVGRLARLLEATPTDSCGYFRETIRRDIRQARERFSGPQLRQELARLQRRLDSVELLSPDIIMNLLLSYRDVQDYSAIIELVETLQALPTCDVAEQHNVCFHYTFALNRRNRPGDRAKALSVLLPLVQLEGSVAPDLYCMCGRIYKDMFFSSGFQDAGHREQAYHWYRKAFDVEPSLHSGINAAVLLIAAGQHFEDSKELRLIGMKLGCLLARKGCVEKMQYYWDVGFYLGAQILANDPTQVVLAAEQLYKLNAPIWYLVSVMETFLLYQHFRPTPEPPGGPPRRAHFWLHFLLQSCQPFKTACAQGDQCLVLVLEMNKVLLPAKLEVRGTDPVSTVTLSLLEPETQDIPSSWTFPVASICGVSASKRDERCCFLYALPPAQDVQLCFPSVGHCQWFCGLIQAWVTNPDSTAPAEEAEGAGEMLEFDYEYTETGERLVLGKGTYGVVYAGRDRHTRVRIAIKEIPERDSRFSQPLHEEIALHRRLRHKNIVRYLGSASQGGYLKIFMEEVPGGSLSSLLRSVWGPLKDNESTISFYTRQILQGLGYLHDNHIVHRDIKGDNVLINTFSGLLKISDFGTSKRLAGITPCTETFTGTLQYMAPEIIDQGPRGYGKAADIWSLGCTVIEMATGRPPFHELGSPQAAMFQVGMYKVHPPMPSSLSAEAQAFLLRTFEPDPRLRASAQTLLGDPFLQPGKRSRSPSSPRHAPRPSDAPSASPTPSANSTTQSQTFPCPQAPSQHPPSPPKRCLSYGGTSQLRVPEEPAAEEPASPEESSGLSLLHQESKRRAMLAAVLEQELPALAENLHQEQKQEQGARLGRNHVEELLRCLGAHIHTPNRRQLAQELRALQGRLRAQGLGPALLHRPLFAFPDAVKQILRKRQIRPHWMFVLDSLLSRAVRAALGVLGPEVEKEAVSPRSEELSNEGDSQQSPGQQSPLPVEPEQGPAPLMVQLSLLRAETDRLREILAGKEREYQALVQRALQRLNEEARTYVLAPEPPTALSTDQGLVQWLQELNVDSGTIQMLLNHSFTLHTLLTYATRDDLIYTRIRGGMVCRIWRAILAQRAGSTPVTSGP

O=c1nc(-c2ccccn2)sc2ccccc12 [BTZO-1]
residual activity [1]: 100%
residual activity [2]: 85%
residual activity [3]: 71%
residual activity [4]: 100%
residual activity [5]: 92%
residual activity [6]: 90%
residual activity [7]: 87%
residual activity [8]: 81%
residual activity [9]: 100%
residual activity [10]: 100%
residual activity [11]: 81%
residual activity [12]: 75%
residual activity [13]: 98%
residual activity [14]: 100%
residual activity [15]: 89%
residual activity [16]: 84%
inhibition [17]: -8.56%
residual activity [18]: 96%
residual activity [19]: 79%
residual activity [20]: 79%
residual activity [21]: 74%
residual activity [22]: 100%
residual activity [23]: 76%
residual activity [24]: 100%
residual activity [25]: 100%
residual activity [26]: 95%
residual activity [27]: 100%
residual activity [28]: 47%
residual activity [29]: 80%
residual activity [30]: 99%
residual activity [31]: 99%
residual activity [32]: 99%
inhibition [33]: -1.9%
residual activity [34]: 100%
residual activity [35]: 100%
residual activity [36]: 100%
residual activity [37]: 96%
residual activity [38]: 80%
residual activity [39]: 60%
residual activity [40]: 87%
residual activity [41]: 89%
residual activity [42]: 76%
residual activity [43]: 89%
residual activity [44]: 96%
residual activity [45]: 82%

O=C1NC(c2ccccn2)Sc2ccccc21 (stereo not given) [BTZO-4]
residual activity [1]: 100%
residual activity [2]: 86%
residual activity [3]: 65%
residual activity [4]: 86%
residual activity [5]: 85%
residual activity [6]: 95%
residual activity [7]: 75%
residual activity [8]: 80%
residual activity [9]: 66%
residual activity [10]: 96%
residual activity [11]: 83%
residual activity [12]: 72%
residual activity [13]: 86%
residual activity [14]: 77%
residual activity [15]: 75%
residual activity [16]: 76%
inhibition [17]: -1.52%
residual activity [18]: 74%
residual activity [19]: 96%
residual activity [20]: 99%
residual activity [21]: 65%
residual activity [22]: 100%
residual activity [23]: 72%
residual activity [24]: 100%
residual activity [25]: 100%
residual activity [26]: 91%
residual activity [27]: 100%
residual activity [28]: 42%
residual activity [29]: 76%
residual activity [30]: 100%
residual activity [31]: 100%
residual activity [32]: 70%
inhibition [33]: 12.3%
residual activity [34]: 100%
residual activity [35]: 80%
residual activity [36]: 100%
residual activity [37]: 97%
residual activity [38]: 72%
residual activity [39]: 67%
residual activity [40]: 93%
residual activity [41]: 86%
residual activity [42]: 80%
residual activity [43]: 95%
residual activity [44]: 90%
residual activity [45]: 73%
